Measurements reported in US8409833B2 (Hokko Chemical Industry Co., Ltd., priority 2003, dated 2013).

Tested on: NAD^+-independent myo-inositol 2-dehydrogenase
Experiment: NAD^+-independent myo-inositol 2-dehydrogenase activity (oxidized DCIP, absorbance at 600 nm): substrate specificity, Km, heavy metal inhibition
Conditions: for Km: enzyme derived from Acetobacter sp. AB10253, sugar concentration varied; for reaction of the enzyme with the sugar: sugar at a final concentration of 50 mM
Procedure: The enzyme activity of each fraction was measured by a standard method: that is, the change in absorbance at 600 nm of 1 ml of a solution containing 50 μl of the protein solution, 100 mM phosphate buffer (pH 5.0), 5 mg of myo-inositol, and 0.4 mg of 2,4-dichloroindophenol (oxidized DCIP) was calculated into a reaction rate, and an activity to oxidize 1 μmol of myo-inositol per minute was defined as one unit.
For measurement of the optimum pH, the enzyme activity was measured while changing a buffer and pH value. As the buffer, there were used 100 mM phosphate buffer (pH 3 to 8), 100 mM Tris buffer (pH 7 to 8), and 100 mM carbonate buffer (pH 8 to 11).
The substrate specificity of the target enzyme was determined by measuring the enzyme activity in a solution containing various sugars instead of myo-inositol at a final concentration of 50 mM.

Structure (SMILES) | Km | reaction of the enzyme with the sugar | other results
OC1C(O)C(O)C(O)C(O)C1O [D-chiro-inositol] | 8.8 mM | – | –
[Sn+2] [Sn^2+ ion, reference compound] | – | – | enzyme activity relative to the activity in the absence of the ion (1 mM ion, 100 mM phosphate buffer (pH 5.0)): ≤ 1%
OC1C(O)C(O)C(O)C(O)C1O (stereo not drawn) [allo-inositol] | – | not to react | –
OC1C(O)C(O)C(O)C(O)C1O (stereo not drawn) [muco-inositol] | 14.5 mM | – | –
OC1C(O)[C@H](O)[C@H](O)C(O)[C@@H]1O (stereo partly drawn) [myo-inositol] | 20 mM | – | –
OC1C(O)[C@H](O)[C@H](O)C(O)[C@H]1O (stereo partly drawn) [scyllo-inositol] | – | not to react | –
